ChEMBL document CHEMBL1201862, “PubChem BioAssay data set” (2004)
Calls of active or inactive are those of the source.

Columns and labels:
[1] = target: E3 ubiquitin-protein ligase Mdm2 (Homo sapiens, UniProt Q00987); test: enhancers of MDM2-luciferase reporter signal, concentration-effect titration, project on inhibitors of MDM2 ubiquitin ligase, cellular assay, luminescent readout, 384-well plate format (AID 1394); assay type: functional;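 note: MDM2 E3 inhibitors raise luminescence so EC50 is for signal enhancement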
Sequence of E3 ubiquitin-protein ligase Mdm2 (Q00987 whole entry): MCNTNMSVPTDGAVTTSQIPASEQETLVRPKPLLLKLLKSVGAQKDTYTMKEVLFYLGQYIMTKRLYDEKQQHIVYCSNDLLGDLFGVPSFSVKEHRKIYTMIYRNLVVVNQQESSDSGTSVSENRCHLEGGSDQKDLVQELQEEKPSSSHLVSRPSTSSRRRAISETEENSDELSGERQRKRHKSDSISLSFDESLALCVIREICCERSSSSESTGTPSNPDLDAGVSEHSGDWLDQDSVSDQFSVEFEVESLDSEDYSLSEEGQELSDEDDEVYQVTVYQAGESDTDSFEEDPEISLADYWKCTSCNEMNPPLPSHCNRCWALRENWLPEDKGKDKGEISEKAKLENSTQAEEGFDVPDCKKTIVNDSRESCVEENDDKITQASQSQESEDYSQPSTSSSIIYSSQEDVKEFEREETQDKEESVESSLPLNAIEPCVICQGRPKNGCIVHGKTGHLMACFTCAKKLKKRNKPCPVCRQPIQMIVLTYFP

HEK293 [2] = test: Fluorescence-based counterscreen for potentiators or agonists of NPY-Y2: cell-based high-throughput dose response assay to identify inhibitors of cyclic nucleotide gated ion channel (CNGC) activity. In this assay, the parental HEK293 cell line transfected with a cyclic-nucleotide gated ion channel (CNGC)-based cAMP sensor is used to measure inhibition of isoproterenol-induced CNGC activity by test compound.; assay type: functional; conditions: Homo sapiens
[3] = system: Streptococcus sp. 'group A'; test: growth inhibition of control SK(-) GAS strain, dose response, counter-screen for streptokinase expression inhibitor project, luminescence, kanamycin, BacTiterGlo, confirmation (AID 1900); assay type: functional, organism-based
Streptococcus = test: Group A Streptococcus viability loss, dose response, counter-screen for streptokinase expression inhibitor project, luminescence, BacTiterGlo (AID 1915); assay type: functional, organism-based;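 note: potency for reduction of bacterial viability or growth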
[4] = M. tuberculosis H37Rv growth inhibitors, H37Rv strain (AID 1626); assay type: functional
Large T antigen = Large T antigen (Simian virus 40, UniProt P03070); assay type: functional, Betapolyomavirus macacae;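 note: Confirmatory-stage PubChem screen for compounds that inhibit SV40 T antigen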
Sequence of Large T antigen (P03070 whole entry): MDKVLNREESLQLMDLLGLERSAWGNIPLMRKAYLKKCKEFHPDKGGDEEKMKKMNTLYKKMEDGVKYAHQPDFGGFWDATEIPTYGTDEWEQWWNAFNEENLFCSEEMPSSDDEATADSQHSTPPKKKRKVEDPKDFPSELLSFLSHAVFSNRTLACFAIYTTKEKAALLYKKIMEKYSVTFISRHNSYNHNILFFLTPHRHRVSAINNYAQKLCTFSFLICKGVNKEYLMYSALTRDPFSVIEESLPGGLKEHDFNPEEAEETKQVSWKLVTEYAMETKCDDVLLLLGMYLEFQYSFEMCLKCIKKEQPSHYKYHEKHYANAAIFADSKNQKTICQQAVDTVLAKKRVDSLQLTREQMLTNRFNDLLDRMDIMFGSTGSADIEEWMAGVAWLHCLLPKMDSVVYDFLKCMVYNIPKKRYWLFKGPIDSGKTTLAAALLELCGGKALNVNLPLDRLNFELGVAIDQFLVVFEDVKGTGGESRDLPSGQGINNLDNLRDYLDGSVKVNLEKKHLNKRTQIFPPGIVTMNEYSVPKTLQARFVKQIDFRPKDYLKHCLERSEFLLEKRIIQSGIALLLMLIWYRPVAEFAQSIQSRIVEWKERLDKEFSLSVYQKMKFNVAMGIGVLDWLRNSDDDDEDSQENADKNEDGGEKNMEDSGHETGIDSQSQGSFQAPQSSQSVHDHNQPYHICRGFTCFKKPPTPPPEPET

[5] = target: Mannose-6-phosphate isomerase (Homo sapiens, UniProt P34949); test: human PMI inhibitors, high substrate, primary screen, biochemical, fluorescence intensity, high mannose 6-phosphate (AID 1220)
Sequence of Mannose-6-phosphate isomerase (P34949 whole entry): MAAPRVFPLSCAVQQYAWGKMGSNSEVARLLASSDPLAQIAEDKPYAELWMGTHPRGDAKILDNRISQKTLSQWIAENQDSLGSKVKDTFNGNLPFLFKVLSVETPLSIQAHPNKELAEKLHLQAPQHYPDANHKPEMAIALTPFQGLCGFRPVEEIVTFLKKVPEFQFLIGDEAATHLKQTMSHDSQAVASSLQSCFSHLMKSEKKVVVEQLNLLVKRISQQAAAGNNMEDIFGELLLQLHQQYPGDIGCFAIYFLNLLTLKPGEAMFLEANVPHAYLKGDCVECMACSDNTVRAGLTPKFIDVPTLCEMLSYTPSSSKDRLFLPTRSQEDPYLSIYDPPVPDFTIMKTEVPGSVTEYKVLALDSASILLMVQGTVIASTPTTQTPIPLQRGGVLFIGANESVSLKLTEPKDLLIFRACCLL

[6] = target: Eukaryotic translation initiation factor 4E (Mus musculus, UniProt P63073); test: eIF4E–eIF4G protein interaction inhibitors, dose response, biochemical, TR-FRET (AID 855); assay type: functional;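 note: potency for disrupting eIF4E binding to eIF4GI seen as loss of FRET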
Sequence of Eukaryotic translation initiation factor 4E (P63073 whole entry): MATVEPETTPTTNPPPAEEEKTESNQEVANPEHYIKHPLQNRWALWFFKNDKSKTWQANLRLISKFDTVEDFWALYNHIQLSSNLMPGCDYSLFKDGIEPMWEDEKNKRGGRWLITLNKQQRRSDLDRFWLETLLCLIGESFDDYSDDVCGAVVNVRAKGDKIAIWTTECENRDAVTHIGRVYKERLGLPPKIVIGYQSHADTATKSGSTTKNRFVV

[7] = target: DNA dC->dU-editing enzyme APOBEC-3G (Homo sapiens, UniProt Q9HC16); test: Dose Response confirmation of small molecule APOBEC3G DNA Deaminase Inhibitors via a fluorescence-based single-stranded DNA deaminase assay. [Related pubchem assays (depositor defined):AID493012, AID493028]; assay type: functional
Sequence of DNA dC->dU-editing enzyme APOBEC-3G (Q9HC16 whole entry): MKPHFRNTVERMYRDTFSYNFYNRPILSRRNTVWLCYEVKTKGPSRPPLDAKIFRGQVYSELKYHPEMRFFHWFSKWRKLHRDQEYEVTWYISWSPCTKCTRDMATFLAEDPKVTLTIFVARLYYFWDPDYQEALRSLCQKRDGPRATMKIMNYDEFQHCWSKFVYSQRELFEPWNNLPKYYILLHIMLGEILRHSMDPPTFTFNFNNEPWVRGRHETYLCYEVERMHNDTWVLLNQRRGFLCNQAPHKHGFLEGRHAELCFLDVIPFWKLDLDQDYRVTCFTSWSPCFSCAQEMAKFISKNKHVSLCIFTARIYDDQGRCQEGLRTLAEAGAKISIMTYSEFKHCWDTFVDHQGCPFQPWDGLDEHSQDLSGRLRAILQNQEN

[8] = target: Luciferin 4-monooxygenase (Photinus pyralis, UniProt P08659); test: Counter Screen for Luciferase-based Assay Positives. [Related pubchem assays: 620, 618, 411 ]
Sequence of Luciferin 4-monooxygenase (P08659 whole entry): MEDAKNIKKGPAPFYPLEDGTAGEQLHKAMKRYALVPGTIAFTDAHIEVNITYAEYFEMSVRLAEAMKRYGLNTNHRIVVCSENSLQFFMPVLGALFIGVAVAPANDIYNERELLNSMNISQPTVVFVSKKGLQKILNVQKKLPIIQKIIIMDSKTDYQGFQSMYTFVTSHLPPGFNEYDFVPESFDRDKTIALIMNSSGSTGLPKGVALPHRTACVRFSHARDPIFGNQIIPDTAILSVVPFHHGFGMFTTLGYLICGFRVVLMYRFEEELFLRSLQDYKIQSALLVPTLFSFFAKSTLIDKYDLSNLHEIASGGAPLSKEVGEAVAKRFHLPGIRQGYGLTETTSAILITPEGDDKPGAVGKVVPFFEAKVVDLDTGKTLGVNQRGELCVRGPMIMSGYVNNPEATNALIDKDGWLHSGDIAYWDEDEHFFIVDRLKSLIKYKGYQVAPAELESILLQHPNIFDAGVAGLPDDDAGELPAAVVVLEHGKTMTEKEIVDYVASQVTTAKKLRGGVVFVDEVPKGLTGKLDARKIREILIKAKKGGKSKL

HT-1080 = test: cytotoxicity in HT1080 fibrosarcoma cells, cell-based, fluorescence readout (AID 620); assay type: functional; conditions: Homo sapiens
Protein skinhead-1 = target: T1, Protein skinhead-1 (Caenorhabditis elegans, UniProt P34707); assay type: functional
T1 sequence (P34707 whole entry): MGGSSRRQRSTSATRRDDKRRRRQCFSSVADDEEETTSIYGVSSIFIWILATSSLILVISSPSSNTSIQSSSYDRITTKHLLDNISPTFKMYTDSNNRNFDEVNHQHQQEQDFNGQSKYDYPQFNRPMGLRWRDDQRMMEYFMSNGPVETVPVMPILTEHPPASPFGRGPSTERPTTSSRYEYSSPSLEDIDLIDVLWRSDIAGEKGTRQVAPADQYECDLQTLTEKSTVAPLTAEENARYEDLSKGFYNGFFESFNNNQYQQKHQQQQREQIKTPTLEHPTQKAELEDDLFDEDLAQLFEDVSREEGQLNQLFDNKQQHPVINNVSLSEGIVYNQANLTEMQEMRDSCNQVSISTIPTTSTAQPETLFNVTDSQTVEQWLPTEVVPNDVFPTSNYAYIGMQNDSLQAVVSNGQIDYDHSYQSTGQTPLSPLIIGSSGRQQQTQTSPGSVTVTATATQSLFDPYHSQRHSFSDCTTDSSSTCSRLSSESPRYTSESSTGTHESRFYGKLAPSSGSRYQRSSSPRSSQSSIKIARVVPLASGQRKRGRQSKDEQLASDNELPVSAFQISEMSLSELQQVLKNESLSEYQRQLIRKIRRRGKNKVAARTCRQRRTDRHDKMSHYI

NADPH oxidase 1 = NADPH oxidase 1 (Homo sapiens, UniProt Q9Y5S8); assay type: functional, cell-based;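 note: Cell-based assay with luminescence read-out, IC50 derived from inhibitor dose-response curves; intracellular ROS from endogenous NOX1 in intact HT29 colon cancer cells; potency of inhibitors that lower the ROS luminescence signal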
Sequence of NADPH oxidase 1 (Q9Y5S8 whole entry): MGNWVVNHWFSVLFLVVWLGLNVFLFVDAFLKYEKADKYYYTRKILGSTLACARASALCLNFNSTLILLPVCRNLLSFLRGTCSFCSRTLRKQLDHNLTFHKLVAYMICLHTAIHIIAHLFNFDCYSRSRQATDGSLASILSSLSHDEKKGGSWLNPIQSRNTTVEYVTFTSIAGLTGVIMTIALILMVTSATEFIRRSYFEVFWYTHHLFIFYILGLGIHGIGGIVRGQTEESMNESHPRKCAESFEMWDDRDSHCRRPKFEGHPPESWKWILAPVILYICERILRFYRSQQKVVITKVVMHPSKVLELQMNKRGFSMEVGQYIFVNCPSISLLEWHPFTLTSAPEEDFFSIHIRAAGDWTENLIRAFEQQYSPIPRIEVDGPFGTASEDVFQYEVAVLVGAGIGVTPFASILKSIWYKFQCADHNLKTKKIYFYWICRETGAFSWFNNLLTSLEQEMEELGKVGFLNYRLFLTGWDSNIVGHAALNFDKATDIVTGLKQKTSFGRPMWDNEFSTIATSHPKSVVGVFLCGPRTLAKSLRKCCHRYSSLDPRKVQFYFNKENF

[9] = target: Mitogen-activated protein kinase 10 (Homo sapiens, UniProt P53779); test: Dose response biochemical screening assay for inhibitors of c-Jun N-Terminal Kinase 3 (JNK3). [Related pubchem assays: 746 ]
Sequence of Mitogen-activated protein kinase 10 (P53779 whole entry): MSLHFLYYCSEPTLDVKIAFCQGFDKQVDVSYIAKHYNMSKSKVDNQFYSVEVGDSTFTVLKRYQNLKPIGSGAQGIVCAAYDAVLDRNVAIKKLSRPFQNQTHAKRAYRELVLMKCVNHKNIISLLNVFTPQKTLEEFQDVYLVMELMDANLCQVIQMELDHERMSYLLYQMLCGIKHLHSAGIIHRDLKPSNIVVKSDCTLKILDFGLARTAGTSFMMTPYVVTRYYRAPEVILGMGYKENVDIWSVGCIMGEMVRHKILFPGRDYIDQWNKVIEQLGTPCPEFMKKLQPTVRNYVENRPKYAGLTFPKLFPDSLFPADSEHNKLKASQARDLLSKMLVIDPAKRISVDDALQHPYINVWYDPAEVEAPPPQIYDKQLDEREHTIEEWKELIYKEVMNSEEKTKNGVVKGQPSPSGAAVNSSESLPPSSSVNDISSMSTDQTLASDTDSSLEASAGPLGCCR

Ephrin type-A receptor 4 = Ephrin type-A receptor 4 (Mus musculus, UniProt Q03137); test: inhibitors of EphA4 binding to KYL peptide, primary screen, biochemical, colorimetric, mouse EphA4 (AID 689); assay type: functional
Sequence of Ephrin type-A receptor 4 (Q03137 whole entry): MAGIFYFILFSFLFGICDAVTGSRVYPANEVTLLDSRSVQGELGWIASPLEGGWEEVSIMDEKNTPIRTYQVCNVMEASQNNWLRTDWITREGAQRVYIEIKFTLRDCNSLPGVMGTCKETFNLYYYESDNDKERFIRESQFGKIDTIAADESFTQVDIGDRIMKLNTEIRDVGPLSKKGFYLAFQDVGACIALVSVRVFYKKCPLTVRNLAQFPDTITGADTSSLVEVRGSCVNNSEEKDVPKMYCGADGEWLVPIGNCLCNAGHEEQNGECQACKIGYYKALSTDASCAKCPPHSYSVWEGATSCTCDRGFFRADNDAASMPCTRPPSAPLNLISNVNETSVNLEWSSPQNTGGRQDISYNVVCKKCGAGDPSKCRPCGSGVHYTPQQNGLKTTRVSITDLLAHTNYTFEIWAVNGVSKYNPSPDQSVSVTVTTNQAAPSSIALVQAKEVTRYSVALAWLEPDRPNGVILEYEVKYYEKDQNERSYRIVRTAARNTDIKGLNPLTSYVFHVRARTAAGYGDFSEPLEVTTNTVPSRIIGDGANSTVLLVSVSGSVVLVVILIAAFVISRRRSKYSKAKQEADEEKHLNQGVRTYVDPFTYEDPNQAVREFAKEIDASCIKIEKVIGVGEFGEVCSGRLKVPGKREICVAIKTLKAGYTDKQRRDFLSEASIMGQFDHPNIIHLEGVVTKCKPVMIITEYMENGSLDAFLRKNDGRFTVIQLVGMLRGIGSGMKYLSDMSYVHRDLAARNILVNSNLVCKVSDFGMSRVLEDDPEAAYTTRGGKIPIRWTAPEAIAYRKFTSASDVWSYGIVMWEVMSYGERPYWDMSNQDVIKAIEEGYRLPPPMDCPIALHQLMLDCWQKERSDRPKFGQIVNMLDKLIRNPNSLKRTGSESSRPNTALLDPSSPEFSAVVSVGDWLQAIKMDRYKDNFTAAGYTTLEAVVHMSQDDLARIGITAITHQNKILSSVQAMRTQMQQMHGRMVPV

[10] = target: T2, Neuropeptide Y receptor type 2 (Homo sapiens, UniProt P49146); test: Fluorescence-based cell-based high-throughput dose response assay for agonists of NPY-Y2. [Related pubchem assays: 1703 (Screening assay (CNGC inhibitors).), 1359 (Screening assay (NPY-Y2 potentiators or agonists).), 1304 (Screening assay (NPY-Y1 potentiators or agonists).), 1710 (Screening assay (NPY-Y2 agonists).), 1791 (Summary AID.)]; assay type: functional
T2 sequence (P49146 whole entry): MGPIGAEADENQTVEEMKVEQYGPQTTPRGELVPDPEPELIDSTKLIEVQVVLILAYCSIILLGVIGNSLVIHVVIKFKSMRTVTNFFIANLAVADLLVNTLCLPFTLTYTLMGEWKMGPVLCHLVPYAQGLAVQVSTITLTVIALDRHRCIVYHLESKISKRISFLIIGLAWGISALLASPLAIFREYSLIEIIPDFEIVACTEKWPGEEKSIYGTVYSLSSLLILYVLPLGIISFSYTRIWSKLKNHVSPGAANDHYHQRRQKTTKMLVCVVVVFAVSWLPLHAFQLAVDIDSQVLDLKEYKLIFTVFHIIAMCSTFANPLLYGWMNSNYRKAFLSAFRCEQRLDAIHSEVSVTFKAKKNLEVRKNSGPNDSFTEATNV

[11] = target: T3, Neuropeptide Y receptor type 1 (Homo sapiens, UniProt P25929); test: Fluorescence-based counterscreen for agonists of NPY-Y2: cell-based high-throughput dose response assay for agonists of NPY-Y1.; assay type: functional
T3 sequence (P25929 whole entry): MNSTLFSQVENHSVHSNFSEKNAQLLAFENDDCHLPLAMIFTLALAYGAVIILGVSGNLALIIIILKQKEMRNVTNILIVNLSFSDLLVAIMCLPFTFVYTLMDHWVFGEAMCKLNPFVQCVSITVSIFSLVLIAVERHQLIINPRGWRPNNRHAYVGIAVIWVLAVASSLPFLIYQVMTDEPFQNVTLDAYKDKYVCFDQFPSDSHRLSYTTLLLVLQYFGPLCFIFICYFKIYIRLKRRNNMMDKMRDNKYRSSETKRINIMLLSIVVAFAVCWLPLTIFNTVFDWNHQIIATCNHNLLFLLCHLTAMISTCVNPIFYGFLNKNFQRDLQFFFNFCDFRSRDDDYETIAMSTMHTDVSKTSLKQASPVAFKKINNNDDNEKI

[12] = target: Heat shock protein HSP 90-alpha (Homo sapiens, UniProt P07900); test: Luminescence-based dose response biochemical high throughput screening assay for inhibitors of the Heat Shock Protein 90 (HSP90). [Related pubchem assays: 1831 (Summary AID.), 1846 (Confirmation screen.), 1789 (Primary screen.)]
[13] = target: Peroxisome proliferator-activated receptor gamma/Nuclear receptor corepressor 2 (Homo sapiens, UniProt P37231+Q9Y618); test: Counterscreen for NR2E3 inverse agonists: TR-FRET-based biochemical high throughput dose response assay to identify inverse agonists of the interaction between peroxisome proliferator-activated receptor gamma (PPARg) and nuclear receptor co-repressor 2 (NCOR2).; assay type: functional
[14] = target: Photoreceptor-specific nuclear receptor (Homo sapiens, UniProt Q9Y5X4); test: NR2E3 inverse agonists, dose response, biochemical, TR-FRET (AID 463256); assay type: functional
[15] = target: T4, Acyl-homoserine lactone acylase PvdQ (Pseudomonas aeruginosa (strain LESB58), UniProt Q9I194); test: P. aeruginosa PvdQ acylase inhibitors, dose response, biochemical, fluorescence, plate reader and imaging, cherry-picks (AID 493231)
T4 sequence (Q9I194 whole entry): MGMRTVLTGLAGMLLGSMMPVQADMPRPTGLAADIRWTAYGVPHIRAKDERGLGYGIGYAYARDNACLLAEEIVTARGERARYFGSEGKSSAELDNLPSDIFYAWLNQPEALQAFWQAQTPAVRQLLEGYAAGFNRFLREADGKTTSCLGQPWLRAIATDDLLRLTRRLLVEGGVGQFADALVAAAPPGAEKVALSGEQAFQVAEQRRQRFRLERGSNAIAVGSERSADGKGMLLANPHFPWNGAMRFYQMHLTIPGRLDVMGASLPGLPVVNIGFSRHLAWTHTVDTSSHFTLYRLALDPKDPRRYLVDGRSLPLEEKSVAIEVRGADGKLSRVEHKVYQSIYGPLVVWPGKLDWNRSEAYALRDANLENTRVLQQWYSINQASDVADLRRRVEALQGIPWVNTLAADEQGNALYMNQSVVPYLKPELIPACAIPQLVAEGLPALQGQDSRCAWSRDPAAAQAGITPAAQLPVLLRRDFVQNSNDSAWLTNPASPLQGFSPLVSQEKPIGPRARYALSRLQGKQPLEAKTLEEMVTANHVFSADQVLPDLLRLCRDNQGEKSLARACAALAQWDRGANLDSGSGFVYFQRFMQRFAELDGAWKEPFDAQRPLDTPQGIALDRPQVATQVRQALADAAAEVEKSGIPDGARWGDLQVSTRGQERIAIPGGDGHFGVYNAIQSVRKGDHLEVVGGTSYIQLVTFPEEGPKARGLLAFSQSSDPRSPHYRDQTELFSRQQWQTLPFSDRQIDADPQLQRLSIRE

HEK293 [16] = test: inhibitors of LMP1-driven NF-kB reporter, dose response, cell-based, HEK293, luciferase, cherry-pick (AID 588343); assay type: functional; conditions: Homo sapiens
[17] = target: SWI/SNF-related matrix-associated actin-dependent regulator of chromatin subfamily A member 2 (Homo sapiens, UniProt P51531); test: Luminescence-based cell-based high throughput dose response assay to identify activators of the function of SWI/SNF related, matrix associated, actin dependent regulator of chromatin, subfamily a, member 2 (SMARCA2, BRM).; assay type: functional
[18] = Counterscreen for activators of the function of SWI/SNF related, matrix associated, actin dependent regulator of chromatin, subfamily a, member 2 (SMARCA2, BRM): Luminescence-based cell-based high throughput dose response assay to identify non-selective compounds using the VP16 reporter assay.; assay type: functional
[19] = enhancers of respiration in Yfh1-depleted yeast, dose response, Friedreich's ataxia, plus single-dose screen (AID 1465); assay type: functional;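 note: yeast depleted of Yfh1p frataxin homolog grown on glycerol needing respiration; WST-1 tetrazolium dye reduction as measure of cellular dehydrogenase metabolic activity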

For `CCOC(=O)Cn1nnnc1C`, the EC50 [1] was 827 µM (not active).

For `O=[N+]([O-])c1cc(C(F)(F)F)cc([N+](=O)[O-])c1NCCN=C(S)Nc1ccc(Cl)c(Cl)c1`, the EC50 (HEK293 [2]) was 7.47 µM (active), the EC50 [3] was 4.03 µM (active) and the EC50 (Streptococcus) was 6.5 µM (active).

With `Cc1cc(C)cc(OCc2nnc(SCC(=O)OC(C)C)o2)c1` the IC50 [4] was > 100 µM (active).

In the case of `CC(C)(O)C1Cc2cc(/C=C/C(=O)O)c(O)cc2O1` (stereo not given), the IC50 (Large T antigen) is reported as 38.3 µM (active), the IC50 [5] is reported as 8.63 µM (active) and the IC50 [6] is reported as 30.4 µM (active). For the same molecule, the IC50 [7] was 38.2 µM (active).

With `Cc1ccc(S(=O)(=O)N2CCN(C(=O)CC(C)C)CC2)cc1` the EC50 [1] was 7.17 µM (not active).

In the case of `O=c1c2ccccc2nnn1CSc1nnc2sc3ccccc3n12`, the EC50 [8] is reported as 0.52 µM (active) and the EC50 (HT-1080) is reported as > 50 µM (not active).

In the case of `COc1ccccc1NC(=O)CN1CCN(C2c3ccccc3-c3ccccc32)CC1`, the IC50 [4] is reported as > 100 µM (active) and the IC50 (Protein skinhead-1) is reported as > 100 µM (inactive).

For `O=C(Oc1ccc([N+](=O)[O-])cc1)c1cc2ccccc2s1`, the IC50 (NADPH oxidase 1) was > 17 µM (not active).

For `O=C(CCCCCn1c(=S)[nH]c2ccccc2c1=O)N1CCC2(CC1)OCCO2`, the IC50 [9] was 29.7 µM (not active).

In the case of `CCc1cccc2c(C(=O)CSc3nnc(-c4ccoc4C)n3C)c[nH]c12`, the IC50 (Ephrin type-A receptor 4) is reported as 12.7 µM (active).

With `O=C(NNC(=O)Nc1ccc(Cl)cc1)Nc1ccc(Cl)cc1` the IC50 (NADPH oxidase 1) was > 17 µM (not active).

With `Cc1cc2c(cc1C)N(C(=O)CSC1=NCCS1)C(C)(C)c1ssc(=S)c1-2` the EC50 (HEK293 [2]) was > 35.4 µM (not active), the EC50 [10] was 32 µM (not active) and the EC50 [11] was 22.2 µM (not active).

For `Cc1cc2ccccc2n1CCNC(=O)c1ccccc1`, the IC50 [12] was 2.52 µM (active), the IC50 (Ephrin type-A receptor 4) was 32.7 µM (active) and the IC50 (Protein skinhead-1) was > 100 µM (inactive).

For `CC(=O)c1sc(NC(=O)CCCOc2ccc(Cl)cc2)nc1C`, the IC50 [13] was 3.5 µM (active) and the IC50 [14] was 4.49 µM (active).

In the case of `CCOc1ccc(NC(=O)c2cnsn2)cc1`, the EC50 [8] is reported as 48.3 µM (active), the EC50 (HT-1080) is reported as > 50 µM (not active) and the AC50 [15] is reported as 81 µM (active). The AC50 (HEK293 [16]) was 5.39 µM (active), the EC50 [17] was > 91.2 µM (inactive) and the EC50 [18] was > 91.2 µM (inactive).

For `COc1cc([N+](=O)[O-])cc(/C=N\NC(=O)C2COc3ccccc3O2)c1O` (stereo not given), the EC50 [3] was 2.97 µM (active), the EC50 [19] was > 100 µM (active) and the EC50 (Streptococcus) was 3.33 µM (active).
